Measured values as given in US9314464B2, “Compounds and compositions as protein kinase inhibitors” (Novartis AG, priority 2009, dated 2016).

molecular target: B-Raf V600E (Homo sapiens (Human), UniProt P15056, V600E); assay: B-Raf V600E/Mek Amplified Luminescence Proximity Homogeneous Assay (B-Raf V600E biochemical); details: read-out: BRAF V600E biochemical IC50
Description: The plate was incubated for 60 minutes at room temperature.
The B-Raf kinase activity reaction was started by the addition of 10 μl per well of 2×ATP (10 μM) diluted in assay buffer. After 3 hours, the reactions were stopped with the addition of 10 μl of stop reagent (60 mM EDTA, 0.01% Tween20). Phosphorylated product was measured using a rabbit anti-p-MEK (Cell Signaling, #9121) antibody and the Alpha Screen IgG (ProteinA) detection Kit (PerkinElmer #6760617R), by the addition of 30 μl to the well of a mixture of the antibody (1:2000 dilution) and detection beads (1:1000 dilution of both beads) in bead buffer (50 mM Tris, pH 7.5, 0.01% Tween20). The additions were carried out under dark conditions to protect the detection beads from light. A lid was placed on top of the plate and the plate was incubated for 1 hour at room temperature. The luminescence was read on a PerkinElmer Envision instrument. The concentration of each compound for 50% inhibition (IC50) was calculated by non-linear regression using XL Fit data analysis software.

Sequence of B-Raf V600E (P15056 whole entry V600E): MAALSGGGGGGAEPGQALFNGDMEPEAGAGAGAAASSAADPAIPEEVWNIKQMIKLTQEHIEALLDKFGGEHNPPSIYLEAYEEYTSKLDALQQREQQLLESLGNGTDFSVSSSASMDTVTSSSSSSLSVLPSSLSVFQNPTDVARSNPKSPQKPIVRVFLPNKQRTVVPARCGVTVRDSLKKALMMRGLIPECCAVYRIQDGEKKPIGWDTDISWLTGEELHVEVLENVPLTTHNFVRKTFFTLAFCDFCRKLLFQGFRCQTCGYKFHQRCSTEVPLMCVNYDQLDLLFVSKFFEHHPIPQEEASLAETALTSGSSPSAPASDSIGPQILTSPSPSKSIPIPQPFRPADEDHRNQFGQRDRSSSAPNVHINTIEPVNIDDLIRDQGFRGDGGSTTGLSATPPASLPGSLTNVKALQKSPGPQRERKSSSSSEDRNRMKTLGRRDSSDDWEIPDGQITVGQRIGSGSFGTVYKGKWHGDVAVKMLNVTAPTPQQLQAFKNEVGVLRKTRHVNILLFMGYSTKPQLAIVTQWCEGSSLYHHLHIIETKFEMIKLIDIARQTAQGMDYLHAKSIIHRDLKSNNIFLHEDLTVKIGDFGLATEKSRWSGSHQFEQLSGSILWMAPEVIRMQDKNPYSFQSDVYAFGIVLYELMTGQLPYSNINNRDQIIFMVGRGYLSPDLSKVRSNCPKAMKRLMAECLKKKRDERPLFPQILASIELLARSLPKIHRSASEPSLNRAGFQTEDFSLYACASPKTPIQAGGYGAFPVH

**Q.** With COC(=O)N[C@@H](C)CNc1nccc(-c2cn(C(C)C)nc2-c2cc(Cl)cc(NS(C)(=O)=O)c2)n1 [Compound 2, methyl N-[(2S)-1-({4-[3-(3-chloro-5-methanesulfonamidophenyl)-1-(propan-2-yl)-1H-pyrazol-4-yl]pyrimidin-2-yl}amino)propan-2-yl]carbamate] as the compound, how does the IC50 read?
**A.** 0.8 nM

**Q.** With CCCS(=O)(=O)Nc1cc(Cl)cc(-c2nn(C(C)C)cc2-c2ccnc(NC[C@H](C)NC(=O)OC)n2)c1 [Compound 5, methyl N-[(2S)-1-[(4-{3-[3-chloro-5-(propane-1-sulfonamido)phenyl]-1-(propan-2-yl)-1H-pyrazol-4-yl}pyrimidin-2-yl)amino]propan-2-yl]carbamate] as the compound, how does the IC50 read?
**A.** 0.2 nM

**Q.** COC(=O)N[C@@H](C)CNc1nccc(-c2cn(C(C)C)nc2-c2cc(F)cc(NS(C)(=O)=O)c2F)n1 [Compound 10, methyl N-[(2S)-1-({4-[3-(2,5-difluoro-3-methanesulfonamidophenyl)-1-(propan-2-yl)-1H-pyrazol-4-yl]pyrimidin-2-yl}amino)propan-2-yl]carbamate] was tested. Which IC50 did it give?
**A.** 0.6 nM

**Q.** For CCn1cc(-c2ccnc(NC[C@H](C)NC(=O)OC)n2)c(-c2cc(Cl)cc(NS(C)(=O)=O)c2F)n1 [Compound 11, methyl N-[(2S)-1-({4-[3-(5-chloro-2-fluoro-3-methanesulfonamidophenyl)-1-ethyl-1H-pyrazol-4-yl]pyrimidin-2-yl}amino)propan-2-yl]carbamate], which IC50 is on record?
**A.** 0.5 nM

**Q.** Which IC50 does the source give for COC(=O)N[C@@H](C)CNc1nccc(-c2cn(C(C)C)nc2-c2cc(F)cc(NS(C)(=O)=O)c2Cl)n1 [Compound 15, Methyl N-[(2S)-1-({4-[3-(2-chloro-5-fluoro-3-methanesulfonamidophenyl)-1-(propan-2-yl)-1H-pyrazol-4-yl]pyrimidin-2-yl}amino)propan-2-yl]carbamate] here?
**A.** 1.1 nM

**Q.** For COC(=O)N[C@@H](C)CNc1nccc(-c2cn(C(C)C)nc2-c2ccnc(NS(C)(=O)=O)c2F)n1 [Compound 16, methyl N-[(2S)-1-({4-[3-(3-fluoro-2-methanesulfonamidopyridin-4-yl)-1-(propan-2-yl)-1H-pyrazol-4-yl]pyrimidin-2-yl}amino)propan-2-yl]carbamate], which IC50 is on record?
**A.** 24 nM

**Q.** COC(=O)N[C@@H](C)CNc1nccc(-c2cn(C(C)C)nc2-c2ccc(F)c(NS(C)(=O)=O)c2F)n1 [Compound 19, methyl N-[(2S)-1-({4-[3-(2,4-difluoro-3-methanesulfonamidophenyl)-1-(propan-2-yl)-1H-pyrazol-4-yl]pyrimidin-2-yl}amino)propan-2-yl]carbamate] was tested. Which IC50 did it give?
**A.** 6.1 nM

**Q.** With CCS(=O)(=O)Nc1c(F)ccc(-c2nn(C(C)C)cc2-c2ccnc(NC[C@H](C)NC(=O)OC)n2)c1F [Compound 26, methyl N-[(2S)-1-({4-[3-(3-ethanesulfonamido-2,4-difluorophenyl)-1-(propan-2-yl)-1H-pyrazol-4-yl]pyrimidin-2-yl}amino)propan-2-yl]carbamate] as the compound, how does the IC50 read?
**A.** 1.7 nM

**Q.** With COC(=O)N[C@@H](C)CNc1nccc(-c2cn(C(C)C)nc2-c2cc(NS(C)(=O)=O)c(C)c(OC)c2)n1 [Compound 27] as the compound, how does the IC50 read?
**A.** 390 nM

**Q.** Which IC50 does the source give for CC(C)n1cc(-c2ccnc(NCCN(C)C)n2)c(-c2cc(Cl)cc(NS(C)(=O)=O)c2F)n1 [Compound 28, N-{5-chloro-3-[4-(2-{[2-(dimethylamino)ethyl]amino}pyrimidin-4-yl)-1-(propan-2-yl)-1H-pyrazol-3-yl]-2-fluorophenyl}methanesulfonamide] here?
**A.** 90 nM

**Q.** Which IC50 does the source give for CNc1nccc(-c2cn(C(C)C)nc2-c2cc(Cl)cc(NS(C)(=O)=O)c2F)n1 [Compound 29, N-(5-chloro-2-fluoro-3-{4-[2-(methylamino)pyrimidin-4-yl]-1-(propan-2-yl)-1H-pyrazol-3-yl}phenyl)methanesulfonamide] here?
**A.** 8 nM

**Q.** CC(C)n1cc(-c2ccnc(N)n2)c(-c2cc(Cl)cc(NS(C)(=O)=O)c2F)n1 [Compound 30, N-{3-[4-(2-aminopyrimidin-4-yl)-1-(propan-2-yl)-1H-pyrazol-3-yl]-5-chloro-2-fluorophenyl}methanesulfonamide] was tested. Which IC50 did it give?
**A.** 4.3 nM

**Q.** COC(=O)N[C@@H](C)CNc1nccc(-c2c[nH]nc2-c2cc(Cl)cc(NS(C)(=O)=O)c2F)n1 [Compound 31, Methyl N-[(2S)-1-({4-[3-(5-chloro-2-fluoro-3-methanesulfonamidophenyl)-1H-pyrazol-4-yl]pyrimidin-2-yl}amino)propan-2-yl]carbamate] was tested. Which IC50 did it give?
**A.** 0.8 nM

**Q.** With COC(=O)NC[C@H](C)Nc1nccc(-c2cn(C(C)C)nc2-c2cc(Cl)cc(NS(C)(=O)=O)c2F)n1 [Compound 32, Methyl N-[(2S)-2-({4-[3-(5-chloro-2-fluoro-3-methanesulfonamidophenyl)-1-(propan-2-yl)-1H-pyrazol-4-yl]pyrimidin-2-yl}amino)propyl]carbamate] as the compound, how does the IC50 read?
**A.** 2.9 nM

**Q.** For CCCS(=O)(=O)Nc1c(F)ccc(-c2nn(C(C)C)cc2-c2ccnc(NC[C@H](C)NC(=O)OC)n2)c1F [Compound 34, methyl N-[(2S)-1-[(4-{3-[2,4-difluoro-3-(propane-1-sulfonamido)phenyl]-1-(propan-2-yl)-1H-pyrazol-4-yl}pyrimidin-2-yl)amino]propan-2-yl]carbamate], which IC50 is on record?
**A.** 2.7 nM
